# Measured values taken from ChEMBL document CHEMBL2073953, “The anthelminthic agent albendazole does not interact with p-glycoprotein” (Drug Metab Dispos, 2002).
# How the values were obtained:
# [1] = target: T1, ATP-dependent translocase ABCB1 (Homo sapiens, UniProt P08183); assay: TP_TRANSPORTER: transepithelial transport (basal to apical) in MDR1-expressing LLC-PK1 cells; assay type: functional, cell-based; conditions: pig
# [2] = target: T1, ATP-dependent translocase ABCB1; assay: TP_TRANSPORTER: inhibition of Digoxin transepithelial transport (basal to apical) (Digoxin: 5 uM, Albendazole: 100 uM) in MDR1-expressing LLC-PK1 cells; assay type: functional, cell-based; conditions: pig, llc-pk1, 100 µM
# [3] = target: P-glycoprotein 1 and 3 (MDR1a/MDR1b) (Mus musculus, UniProt P21447+P06795); assay: TP_TRANSPORTER: tissue distribution in mdr1a/1b(-/-) mouse; assay type: functional, organism-based; conditions: in vivo
# T1 sequence (P08183 whole entry): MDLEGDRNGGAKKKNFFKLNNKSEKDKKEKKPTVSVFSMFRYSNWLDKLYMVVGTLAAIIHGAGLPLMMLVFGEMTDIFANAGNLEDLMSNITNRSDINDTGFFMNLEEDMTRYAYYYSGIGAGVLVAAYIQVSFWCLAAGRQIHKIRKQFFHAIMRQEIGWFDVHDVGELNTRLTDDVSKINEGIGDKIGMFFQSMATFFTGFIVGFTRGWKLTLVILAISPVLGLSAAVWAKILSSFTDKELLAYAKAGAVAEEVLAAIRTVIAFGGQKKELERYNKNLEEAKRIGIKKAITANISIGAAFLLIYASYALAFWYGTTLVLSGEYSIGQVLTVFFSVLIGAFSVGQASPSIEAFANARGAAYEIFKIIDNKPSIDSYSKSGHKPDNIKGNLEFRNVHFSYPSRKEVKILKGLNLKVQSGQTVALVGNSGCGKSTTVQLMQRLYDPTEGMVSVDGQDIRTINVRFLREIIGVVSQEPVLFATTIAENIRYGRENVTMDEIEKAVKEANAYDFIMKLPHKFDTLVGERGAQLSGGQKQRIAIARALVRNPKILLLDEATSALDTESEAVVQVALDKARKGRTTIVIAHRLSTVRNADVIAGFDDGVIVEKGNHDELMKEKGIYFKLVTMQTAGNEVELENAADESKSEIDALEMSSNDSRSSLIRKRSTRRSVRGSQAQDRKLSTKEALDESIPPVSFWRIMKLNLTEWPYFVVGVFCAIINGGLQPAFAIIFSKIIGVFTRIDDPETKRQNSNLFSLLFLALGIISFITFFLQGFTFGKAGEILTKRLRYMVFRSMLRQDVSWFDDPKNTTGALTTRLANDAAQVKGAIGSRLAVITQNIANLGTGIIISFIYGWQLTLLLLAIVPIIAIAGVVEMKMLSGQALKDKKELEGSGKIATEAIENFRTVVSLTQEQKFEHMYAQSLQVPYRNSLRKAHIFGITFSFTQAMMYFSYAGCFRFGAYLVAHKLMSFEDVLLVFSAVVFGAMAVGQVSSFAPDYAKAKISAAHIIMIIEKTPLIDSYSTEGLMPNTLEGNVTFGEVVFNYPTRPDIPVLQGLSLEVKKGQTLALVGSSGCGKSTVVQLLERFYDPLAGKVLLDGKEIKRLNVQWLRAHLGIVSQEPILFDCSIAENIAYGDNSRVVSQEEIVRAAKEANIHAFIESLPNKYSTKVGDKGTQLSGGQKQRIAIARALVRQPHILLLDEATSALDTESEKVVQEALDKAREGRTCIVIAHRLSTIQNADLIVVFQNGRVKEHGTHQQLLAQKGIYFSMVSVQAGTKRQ
smiles,measurement,setting,value
CCCSc1ccc2nc(NC(=O)OC)[nH]c2c1 [ALBENDAZOLE],Activity,[1],is not a substrate [-]
same,Activity,[2],is not an inhibitor [-]
same,Activity,[3],is not a substrate [-]
